Results published in PMC10517971, “An inverse agonist of orphan receptor GPR61 acts by a G protein-competitive allosteric mechanism” (Nature Communications, 2023).
Where “and” joins values, the source holds several entries; their conditions need not be identical. Equal values may be shown once. Read-outs that look alike come from different tables or passages of the source.

Columns and labels:
human GPR61 = target: T1, human GPR61 (Homo sapiens, UniProt Q9BZJ8); assay: Functional cAMP assay (HTRF), transiently transfected CHO-K1 cells, wild-type GPR61 (untagged and HiBit-tagged); assay type: cell-based; design: key to cAMP response (Figure 3e source data): nM cAMP per well, from standard curve
T1 construct: expressed in transfected cells; host or cells: CHO-K1, transient (Fugene6)
Description: The human GPR61 (reference sequence NM_031936.4) cDNA was synthesized and subcloned into pcDNA5/FRT/TO (Thermo Fisher, Pittsburgh, PA). The pcDNA5/FRT/TO/ human GPR61 plasmid was then transfected into the Flp-In™-CHO Cell Line (Thermo Fisher, Pittsburgh, PA) and a doxycycline-inducible clonal cell line was selected (CHO TREx hGPR61 WT). Sequences encoding untagged and HiBit/hemagglutinin (HA)-tagged versions of the wild-type human GPR61 were synthesized and cloned into pcDNA3.1. The HiBit ([…]) and HA ([…]) tags were sequentially included after the N-terminal initiator methionine. Four single amino acid substitutions (N137A, R140A, V288A, N345A) were then introduced in the untagged and tagged human GPR61 constructs using site-specific mutagenesis. The nucleotide sequences of all receptor constructs were confirmed by automated DNA sequencing.
Parental CHO-K1 cells were maintained at 37 °C in a humidified environment (5% CO2) and grown in Dulbecco’s Modified Eagle Medium (DMEM) F-12 media (Gibco, 11320033) supplemented with 10% FBS, 1% Glutamax (Gibco, 35050061) and 100units/ml penicillin and streptomycin (Gibco, 15140122. Cells were dissociated using a cell dissociation solution (Gibco, 13151-014), counted, and resuspended in complete culture media without antibiotics. Cells were then transiently transfected using Fugene6 (Promega) in a 384-well plate format (Corning, 3570). For each well, 7500 cells were transfected with 5 ng of receptor plasmid, 20 ng of carrier DNA (Promega, PAE4881) and 0.075 μl Fugene6 in a final volume of 25 μl. Fugene6 and DNA were separately diluted in Optimem media (Gibco, 31985070) (1.25 μl final volume each). Fugene6 and DNA solutions were then combined and incubated for 15 min at room temperature. The cell containing solution (22.5 μl) was then added and transfection reactions were mixed and transferred to the assay plate. Following 24 h incubation at 37 °C, wells were rinsed once and 25 μl of HiBit assay buffer (Phenol-red free DMEM F-12 media containing 2% FBS) was added per well. Surface and total receptor expression was measured separately by adding 25 μl per well of the extracellular (Promega, PRN2421) and lytic (Promega, PRN3040) assay solutions, respectively. Plates were incubated for 10 min at room temperature on a shaker and luciferase activity was measured using an EnVision plate reader (Perkin Elmer, Chicago, IL). Expression was normalized as percent of the wild-type receptor signal. Statistical comparisons of expression levels observed with WT versus GPR61 mutants were made by one-way analysis of variance with Dunnett’s post hoc test.
A homogeneous Time-Resolved Fluorescence (HTRF) assay (Perkin Elmer, Dynamic2 kit #) was used to assess receptor basal and inverse agonist activity at human GPR61, GPR62, and GPR101. For routine inverse agonist screening frozen CHO TREx human GPR61, GPR62 and GPR101 cells were used. Cells were thawed, resuspended in complete assay media (DMEM F-12, 10% HI FBS, 100 μg/mL Normocin, 700 μg/mL Hygromycin B and 15 μg/mL Blasticidin) containing 1ug/ml doxycycline, plated in white 384 well plates (Corning, 3570) at a density of 750 cells/well (25 μl/ well) and cultured at 37 °C in an incubator overnight. For studies assessing basal and inverse agonist activity at human GPR61 mutants, CHO-K1 cells were transiently transfected using Fugene6, plated in white 384 well plates (7500 cells/well) and grown overnight at 37 °C, as described for receptor expression studies. […]

human GPR101 = target: T2, human GPR101 (Homo sapiens, UniProt Q96P66); assay: Functional cAMP assay (HTRF), stable CHO TREx human GPR101 cells; assay type: cell-based; settings: Supplementary Table 2
T2 construct: expressed in transfected cells
Description: A homogeneous Time-Resolved Fluorescence (HTRF) assay (Perkin Elmer, Dynamic2 kit #) was used to assess receptor basal and inverse agonist activity at human GPR61, GPR62, and GPR101. For routine inverse agonist screening frozen CHO TREx human GPR61, GPR62 and GPR101 cells were used. Cells were thawed, resuspended in complete assay media (DMEM F-12, 10% HI FBS, 100 μg/mL Normocin, 700 μg/mL Hygromycin B and 15 μg/mL Blasticidin) containing 1ug/ml doxycycline, plated in white 384 well plates (Corning, 3570) at a density of 750 cells/well (25 μl/ well) and cultured at 37 °C in an incubator overnight. For studies assessing basal and inverse agonist activity at human GPR61 mutants, CHO-K1 cells were transiently transfected using Fugene6, plated in white 384 well plates (7500 cells/well) and grown overnight at 37 °C, as described for receptor expression studies. […] Data were analyzed using the ratio of fluorescence intensity at 620 and 665 nm for each well, extrapolated from the cAMP standard curve to express data as nM cAMP for each well. […]

T1 sequence (Q9BZJ8 whole entry): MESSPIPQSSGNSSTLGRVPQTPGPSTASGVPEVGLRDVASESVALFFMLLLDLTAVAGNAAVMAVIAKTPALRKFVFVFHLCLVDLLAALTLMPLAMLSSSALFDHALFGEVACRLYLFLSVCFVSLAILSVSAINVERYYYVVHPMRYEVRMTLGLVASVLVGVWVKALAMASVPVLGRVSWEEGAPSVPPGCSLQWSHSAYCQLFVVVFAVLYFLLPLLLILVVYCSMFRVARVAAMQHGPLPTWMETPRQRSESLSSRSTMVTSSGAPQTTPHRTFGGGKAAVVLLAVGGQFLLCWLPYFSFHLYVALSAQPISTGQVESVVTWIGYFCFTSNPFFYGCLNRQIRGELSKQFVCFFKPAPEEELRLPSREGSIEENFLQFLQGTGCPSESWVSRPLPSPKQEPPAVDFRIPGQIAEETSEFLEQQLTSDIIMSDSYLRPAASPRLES
T2 sequence (Q96P66 whole entry): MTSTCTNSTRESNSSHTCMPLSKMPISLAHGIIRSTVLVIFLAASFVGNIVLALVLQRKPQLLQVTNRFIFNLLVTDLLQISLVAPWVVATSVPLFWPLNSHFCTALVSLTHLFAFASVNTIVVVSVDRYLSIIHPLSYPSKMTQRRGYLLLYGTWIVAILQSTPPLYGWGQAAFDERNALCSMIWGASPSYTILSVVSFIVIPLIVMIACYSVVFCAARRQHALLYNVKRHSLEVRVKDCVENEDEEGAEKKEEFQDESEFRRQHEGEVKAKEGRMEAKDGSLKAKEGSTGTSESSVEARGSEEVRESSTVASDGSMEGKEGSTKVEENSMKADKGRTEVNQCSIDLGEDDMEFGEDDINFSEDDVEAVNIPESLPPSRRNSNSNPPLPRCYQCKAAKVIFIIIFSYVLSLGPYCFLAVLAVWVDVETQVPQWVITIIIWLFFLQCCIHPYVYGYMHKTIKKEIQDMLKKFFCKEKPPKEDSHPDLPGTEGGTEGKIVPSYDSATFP

Question: For `CCOc1cc(C)nc(N(CCOC)S(=O)(=O)c2ccc(NCc3c(F)cncc3F)nc2OC)n1` [Compound 1], which IC50 (human GPR61; Fig. 2d, HiBit-tagged WT, read-out: IC50, cAMP assay, Hibit-tagged GPR61) is on record?
Answer: The IC50 was 10 nM.

Question: And the IC50 (human GPR61; Fig. 2d, untagged WT, read-out: IC50, cAMP assay, Untagged GPR61)?
Answer: The IC50 was 11 nM.

Question: What about the “cAMP response (Figure 3e source data)” value (human GPR61; HiBit WT, concentration -7.5) of the same compound?
Answer: Its value is 1.38 and 1.77 and 1.31 and 1.26 and 1.43 and 2.44.

Question: What about the “cAMP response (Figure 3e source data)” value (human GPR61; HiBit WT, concentration -8) of the same compound?
Answer: Its value is 2.14 and 2.36 and 1.86 and 2.11 and 3.43.

Question: What about the “cAMP response (Figure 3e source data)” value (human GPR61; HiBit WT, concentration -10) of the same compound?
Answer: Its value is 3.60 and 4.23 and 3.00 and 3.19 and 3.38 and 5.40.

Question: And the “cAMP response (Figure 3e source data)” value (human GPR61; Untagged WT, concentration -8.5)?
Answer: The value was 3.48 and 4.28 and 2.15 and 2.16 and 4.06 and 4.02.

Question: And the “cAMP response (Figure 3e source data)” value (human GPR61; Untagged WT, concentration -9)?
Answer: The value was 4.53 and 5.41 and 3.02 and 3.13 and 5.81 and 5.80.

Question: And the IC50 (human GPR61; wild-type GPR61, untagged and HiBit-tagged, read-out: IC50 in the functional cAMP assay)?
Answer: The IC50 was 10 to 11 nM.

Question: And the IC50 (human GPR101)?
Answer: The IC50 was greater than 29.7 µM.
